Source: publication PMC4825926, “FleA Expression in Aspergillus fumigatus Is Recognized by Fucosylated Structures on Mucins and Macrophages to Prevent Lung Infection” (PLoS Pathogens, 2016)
Like-named read-outs stand apart in the source and are kept apart here.

Legend:
[1] = biological target: T1, FleA (AFL, Aspergillus fumigatus lectin) (Aspergillus fumigatus, UniProt Q4WW81); assay: competition plate assay: biotinylated FleA binding to immobilised human airway mucin
T1 construct: about 34 kDa; no canonical signal peptide

[2] = biological target: T2, PA-IIL (PAIIL) (Pseudomonas aeruginosa, UniProt Q9HYN5); assay: competition assay: PA-IIL binding to human airway mucin
T2 construct: gene lecB

[3] = biological target: T1, FleA (AFL, Aspergillus fumigatus lectin); assay: competition plate assay: biotinylated FleA binding to immobilised human airway mucin; settings: 10 mM CaCl2, TBS-Tween; 100 mM L-galactose

T1 sequence (Q4WW81 whole entry): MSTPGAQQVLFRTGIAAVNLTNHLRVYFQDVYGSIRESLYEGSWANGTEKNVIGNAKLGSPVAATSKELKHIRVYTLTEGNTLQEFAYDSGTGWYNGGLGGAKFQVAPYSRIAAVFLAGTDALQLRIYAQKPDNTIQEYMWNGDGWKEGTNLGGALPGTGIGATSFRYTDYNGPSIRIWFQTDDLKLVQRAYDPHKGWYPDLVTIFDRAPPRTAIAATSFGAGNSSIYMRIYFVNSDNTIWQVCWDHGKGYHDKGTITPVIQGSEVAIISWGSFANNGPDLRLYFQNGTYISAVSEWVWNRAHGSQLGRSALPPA
T2 sequence (Q9HYN5 entry or part of it): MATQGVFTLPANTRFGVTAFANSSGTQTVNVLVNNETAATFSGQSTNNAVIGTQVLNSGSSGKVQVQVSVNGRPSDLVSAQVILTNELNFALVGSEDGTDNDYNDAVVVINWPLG

CO[C@@H]1O[C@@H](C)[C@@H](O)[C@@H](O)[C@@H]1O [methyl α-L-fucopyranoside]
IC50 [1]: 450 µM

CCC/C=C/CO[C@@H]1O[C@@H](C)[C@@H](O)[C@@H](O)[C@@H]1O [(2E)-hexenyl α-L-fucopyranoside]
IC50 [1]: 0.012 µM | IC50 [2]: 1.6 µM

CCC/C=C/CO[C@H]1O[C@H](CO)[C@H](O)[C@H](O)[C@H]1O [(2E)-hexenyl α-D-galactopyranoside]
IC50 [1]: 15300 µM

C=CCO[C@@H]1O[C@@H](C)[C@@H](O)[C@@H](O)[C@@H]1O [allyl α-L-fucopyranoside]
IC50 [1]: 264 µM

OC[C@@H]1OC(O)[C@@H](O)[C@H](O)[C@@H]1O (stereo partly drawn) [L-galactose]
inhibition at 100 mM [3]: No inhibition was observed with galactose (Fig 1A)

CCCCC/C=C/CO[C@@H]1O[C@@H](C)[C@@H](O)[C@@H](O)[C@@H]1O [(2E)-octenyl α-L-fucopyranoside]
IC50 [1]: 2100 µM

C[C@@H]1OC(O)[C@@H](O)[C@H](O)[C@@H]1O (stereo partly drawn) [L-fucose]
IC50 ([1]; 10 mM CaCl2, TBS-Tween, inhibition of FleA-mucin binding): 801 µM

CCCCCCO[C@@H]1O[C@@H](C)[C@@H](O)[C@@H](O)[C@@H]1O [hexyl α-L-fucopyranoside]
IC50 [1]: 361 µM
